# Experimental data: PubChem BioAssay (NCI)
#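 Step 1: Grow cells in 96-well plates. Step 2: Expose to compound for 48 hours at 5 concentrations. Step 3: Interpolate endpoints linearly; if unreached, use highest concentration. TGI is the concentration that stops growth completely.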
# How the values were obtained:
# Experiment in all cases: inhibition of tumour cell growth, NCI panel, 48 h
# 786-0 renal = test system: 786-0 renal
# A498 renal = test system: A498 renal
# A549 NSCLC = test system: A549 NSCLC
# ACHN renal = test system: ACHN renal
# BT-549 breast = test system: BT-549 breast
# CCRF-CEM leukemia = test system: CCRF-CEM leukemia
# COLO 205 colon = test system: COLO 205 colon
# DLD-1 colon = test system: DLD-1 colon
# DMS 114 small cell lung = test system: DMS 114 small cell lung
# DMS 273 small cell lung = test system: DMS 273 small cell lung
# DU-145 prostate = test system: DU-145 prostate
# EKVX NSCLC = test system: EKVX NSCLC
# HCC-2998 colon = test system: HCC-2998 colon
# HCT-116 colon = test system: HCT-116 colon
# HCT-15 colon = test system: HCT-15 colon
# HL-60(TB) leukemia = test system: HL-60(TB) leukemia
# HOP-18 NSCLC = test system: HOP-18 NSCLC
# HOP-62 NSCLC = test system: HOP-62 NSCLC
# HOP-92 NSCLC = test system: HOP-92 NSCLC
# HS 578T breast = test system: HS 578T breast
# HT29 colon = test system: HT29 colon
# IGROV1 ovarian = test system: IGROV1 ovarian
# K-562 leukemia = test system: K-562 leukemia
# KM12 colon = test system: KM12 colon
# KM20L2 colon = test system: KM20L2 colon
# LOX IMVI melanoma = test system: LOX IMVI melanoma
# LXFL 529 NSCLC = test system: LXFL 529 NSCLC
# M14 melanoma = test system: M14 melanoma
# M19-MEL melanoma = test system: M19-MEL melanoma
# MALME-3M melanoma = test system: MALME-3M melanoma
# MDA-MB-231 breast = test system: MDA-MB-231 breast
# MDA-MB-435 = test system: MDA-MB-435
# MDA-N = test system: MDA-N
# MOLT-4 leukemia = test system: MOLT-4 leukemia
# NCI-H226 lung = test system: NCI-H226 lung
# NCI-H23 lung = test system: NCI-H23 lung
# NCI-H460 lung = test system: NCI-H460 lung
# NCI-H522 lung = test system: NCI-H522 lung
# NCI/ADR-RES ovarian = test system: NCI/ADR-RES ovarian
# OVCAR-3 ovarian = test system: OVCAR-3 ovarian
# OVCAR-4 ovarian = test system: OVCAR-4 ovarian
# OVCAR-5 ovarian = test system: OVCAR-5 ovarian
# OVCAR-8 ovarian = test system: OVCAR-8 ovarian
# PC-3 prostate = test system: PC-3 prostate
# RPMI-8226 leukemia = test system: RPMI-8226 leukemia
# RXF 393 renal = test system: RXF 393 renal
# RXF-631 renal = test system: RXF-631 renal
# SF-268 CNS = test system: SF-268 CNS
# SF-295 CNS = test system: SF-295 CNS
# SF-539 CNS = test system: SF-539 CNS
# SK-MEL-2 melanoma = test system: SK-MEL-2 melanoma
# SK-MEL-28 melanoma = test system: SK-MEL-28 melanoma
# SK-MEL-5 melanoma = test system: SK-MEL-5 melanoma
# SK-OV-3 ovarian = test system: SK-OV-3 ovarian
# SN12C renal = test system: SN12C renal
# SNB-19 CNS = test system: SNB-19 CNS
# SNB-75 CNS = test system: SNB-75 CNS
# SNB-78 CNS = test system: SNB-78 CNS
# SR leukemia = test system: SR leukemia
# SW-620 colon = test system: SW-620 colon
# TK-10 renal = test system: TK-10 renal
# U251 CNS = test system: U251 CNS
# UACC-257 melanoma = test system: UACC-257 melanoma
# UACC-62 melanoma = test system: UACC-62 melanoma
# UO-31 renal = test system: UO-31 renal
# XF 498 CNS = test system: XF 498 CNS
compound,measurement,setting,value
COc1cc2c[n+](C)c3c4cc5c(cc4ccc3c2cc1OC)OCO5,TGI,786-0 renal,21.7 µM
same,TGI,A498 renal,2.67 µM
same,TGI,A549 NSCLC,0.756 µM
same,TGI,ACHN renal,> 100 µM
same,TGI,BT-549 breast,78.4 µM
same,TGI,CCRF-CEM leukemia,19.5 µM
same,TGI,COLO 205 colon,4.48 µM
same,TGI,DLD-1 colon,> 31.6 µM
same,TGI,DMS 114 small cell lung,5.92 µM
same,TGI,DMS 273 small cell lung,11.6 µM
same,TGI,DU-145 prostate,9.19 µM
same,TGI,EKVX NSCLC,18.7 µM
same,TGI,HCC-2998 colon,7.52 µM
same,TGI,HCT-116 colon,18.9 µM
same,TGI,HCT-15 colon,> 100 µM
same,TGI,HL-60(TB) leukemia,22.5 µM
same,TGI,HOP-18 NSCLC,93.6 µM
same,TGI,HOP-62 NSCLC,16.4 µM
same,TGI,HOP-92 NSCLC,6.39 µM
same,TGI,HS 578T breast,> 100 µM
same,TGI,HT29 colon,4.6 µM
same,TGI,IGROV1 ovarian,3.9 µM
same,TGI,K-562 leukemia,32.2 µM
same,TGI,KM12 colon,7.21 µM
same,TGI,KM20L2 colon,3.47 µM
same,TGI,LOX IMVI melanoma,24.8 µM
same,TGI,LXFL 529 NSCLC,4.67 µM
same,TGI,M14 melanoma,> 88.1 µM
same,TGI,M19-MEL melanoma,2.9 µM
same,TGI,MALME-3M melanoma,37.5 µM
same,TGI,MDA-MB-231 breast,> 100 µM
same,TGI,MDA-MB-435,> 100 µM
same,TGI,MDA-N,> 100 µM
same,TGI,MOLT-4 leukemia,13.5 µM
same,TGI,NCI-H226 lung,15.3 µM
same,TGI,NCI-H23 lung,3.65 µM
same,TGI,NCI-H460 lung,14.7 µM
same,TGI,NCI-H522 lung,2.06 µM
same,TGI,NCI/ADR-RES ovarian,> 100 µM
same,TGI,OVCAR-3 ovarian,9.39 µM
same,TGI,OVCAR-4 ovarian,> 52.4 µM
same,TGI,OVCAR-5 ovarian,4.84 µM
same,TGI,OVCAR-8 ovarian,29.9 µM
same,TGI,PC-3 prostate,> 100 µM
same,TGI,RPMI-8226 leukemia,23.5 µM
same,TGI,RXF 393 renal,49.7 µM
same,TGI,RXF-631 renal,> 100 µM
same,TGI,SF-268 CNS,39.4 µM
same,TGI,SF-295 CNS,57.7 µM
same,TGI,SF-539 CNS,5.32 µM
same,TGI,SK-MEL-2 melanoma,6.97 µM
same,TGI,SK-MEL-28 melanoma,> 82.4 µM
same,TGI,SK-MEL-5 melanoma,23.2 µM
same,TGI,SK-OV-3 ovarian,5.64 µM
same,TGI,SN12C renal,> 27.8 µM
same,TGI,SNB-19 CNS,21.5 µM
same,TGI,SNB-75 CNS,0.767 µM
same,TGI,SNB-78 CNS,> 25.9 µM
same,TGI,SR leukemia,22.8 µM
same,TGI,SW-620 colon,26 µM
same,TGI,TK-10 renal,> 93.1 µM
same,TGI,U251 CNS,2.13 µM
same,TGI,UACC-257 melanoma,> 59.8 µM
same,TGI,UACC-62 melanoma,4.92 µM
same,TGI,UO-31 renal,> 100 µM
same,TGI,XF 498 CNS,9.95 µM
